# Source: ChEMBL document CHEMBL3046561, “Feeding deterrents from Dictamnus dasycarpus Turcz against two stored-product insects” (J Agric Food Chem, 2002)
# Legend:
# Sitophilus zeamais [1] = assay: Antifeedant activity against adult of Sitophilus zeamais assessed as relative consumption rate at 100 ppm after 3 days relative to control; format: functional
# Tribolium castaneum [2] = assay: Antifeedant activity against larvae of Tribolium castaneum (red flour beetle) assessed as relative growth rate at 30 ppm after 3 days relative to control; format: functional
# Tribolium castaneum [3] = assay: Antifeedant activity against larvae of Tribolium castaneum (red flour beetle) assessed as relative consumption rate at 300 ppm after 3 days relative to control; format: functional
# Tribolium castaneum [4] = assay: Antifeedant activity against adult of Tribolium castaneum (red flour beetle) assessed as feeding deterrence index at 100 ppm after 3 days relative to control; format: functional
# Tribolium castaneum [5] = assay: Antifeedant activity against adult of Tribolium castaneum (red flour beetle) assessed as mortality at 3 ppm after 3 days relative to control; format: functional; conditions: 72 h
# Tribolium castaneum [6] = assay: Antifeedant activity against adult of Tribolium castaneum (red flour beetle) assessed as efficiency of conversion of ingested food at 300 ppm after 3 days relative to control; format: functional, Instar larval stage
# Tribolium castaneum [7] = assay: Antifeedant activity against larvae of Tribolium castaneum (red flour beetle) assessed as relative growth rate at 3 ppm after 3 days relative to control; format: functional
# Sitophilus zeamais [8] = assay: Antifeedant activity against adult of Sitophilus zeamais assessed as relative consumption rate at 30 ppm after 3 days relative to control; format: functional
# Tribolium castaneum [9] = assay: Antifeedant activity against larvae of Tribolium castaneum (red flour beetle) assessed as mortality at 3 ppm after 3 days relative to control; format: functional; conditions: 72 h
# Sitophilus zeamais [10] = assay: Antifeedant activity against adult of Sitophilus zeamais assessed as relative growth rate at 3 ppm after 3 days relative to control; format: functional
# Tribolium castaneum [11] = assay: Antifeedant activity against larvae of Tribolium castaneum (red flour beetle) assessed as relative consumption rate at 30 ppm after 3 days relative to control; format: functional
# Sitophilus zeamais [12] = assay: Antifeedant activity against adult of Sitophilus zeamais assessed as relative consumption rate at 3 ppm after 3 days relative to control; format: functional
# Tribolium castaneum [13] = assay: Antifeedant activity against adult of Tribolium castaneum (red flour beetle) assessed as mortality at 10 ppm after 3 days relative to control; format: functional; conditions: 72 h
# Tribolium castaneum [14] = assay: Antifeedant activity against adult of Tribolium castaneum (red flour beetle) assessed as relative growth rate at 300 ppm after 3 days relative to control; format: functional
# Tribolium castaneum [15] = assay: Antifeedant activity against adult of Tribolium castaneum (red flour beetle) assessed as relative growth rate at 3 ppm after 3 days relative to control; format: functional
# Tribolium castaneum [16] = assay: Antifeedant activity against adult of Tribolium castaneum (red flour beetle) assessed as mortality at 100 ppm after 3 days relative to control; format: functional; conditions: 72 h
# Tribolium castaneum [17] = assay: Antifeedant activity against larvae of Tribolium castaneum (red flour beetle) assessed as relative growth rate at 10 ppm after 3 days relative to control; format: functional
# Tribolium castaneum [18] = assay: Antifeedant activity against adult of Tribolium castaneum (red flour beetle) assessed as relative consumption rate at 100 ppm after 3 days relative to control; format: functional
# Tribolium castaneum [19] = assay: Antifeedant activity against adult of Tribolium castaneum (red flour beetle) assessed as relative growth rate at 10 ppm after 3 days relative to control; format: functional
# Tribolium castaneum [20] = assay: Antifeedant activity against larvae of Tribolium castaneum (red flour beetle) assessed as relative growth rate at 300 ppm after 3 days relative to control; format: functional
# Tribolium castaneum [21] = assay: Antifeedant activity against adult of Tribolium castaneum (red flour beetle) assessed as relative consumption rate at 10 ppm after 3 days relative to control; format: functional
# Tribolium castaneum [22] = assay: Antifeedant activity against adult of Tribolium castaneum (red flour beetle) assessed as relative growth rate at 100 ppm after 3 days relative to control; format: functional
# Sitophilus zeamais [23] = assay: Antifeedant activity against adult of Sitophilus zeamais assessed as relative growth rate at 10 ppm after 3 days relative to control; format: functional
# Tribolium castaneum [24] = assay: Antifeedant activity against adult of Tribolium castaneum (red flour beetle) assessed as efficiency of conversion of ingested food at 3 ppm after 3 days relative to control; format: functional
# Sitophilus zeamais [25] = assay: Antifeedant activity against adult of Sitophilus zeamais assessed as mortality at 30 ppm after 3 days relative to control; format: functional; conditions: 72 h
# Tribolium castaneum [26] = assay: Antifeedant activity against adult of Tribolium castaneum (red flour beetle) assessed as efficiency of conversion of ingested food at 10 ppm after 3 days relative to control; format: functional
# Sitophilus zeamais [27] = assay: Antifeedant activity against adult of Sitophilus zeamais assessed as efficiency of conversion of ingested food at 3 ppm after 3 days relative to control; format: functional
# Sitophilus zeamais [28] = assay: Antifeedant activity against adult of Sitophilus zeamais assessed as efficiency of conversion of ingested food at 300 ppm after 3 days relative to control; format: functional
# Sitophilus zeamais [29] = assay: Antifeedant activity against adult of Sitophilus zeamais assessed as efficiency of conversion of ingested food at 100 ppm after 3 days relative to control; format: functional
# Sitophilus zeamais [30] = assay: Antifeedant activity against adult of Sitophilus zeamais assessed as relative consumption rate at 300 ppm after 3 days relative to control; format: functional
# Sitophilus zeamais [31] = assay: Antifeedant activity against adult of Sitophilus zeamais assessed as mortality at 300 ppm after 3 days relative to control; format: functional; conditions: 72 h
# Tribolium castaneum [32] = assay: Antifeedant activity against larvae of Tribolium castaneum (red flour beetle) assessed as mortality at 300 ppm after 3 days relative to control; format: functional; conditions: 72 h
# Sitophilus zeamais [33] = assay: Antifeedant activity against adult of Sitophilus zeamais assessed as relative growth rate at 30 ppm after 3 days relative to control; format: functional
# Sitophilus zeamais [34] = assay: Antifeedant activity against adult of Sitophilus zeamais assessed as mortality at 10 ppm after 3 days relative to control; format: functional; conditions: 72 h
# Tribolium castaneum [35] = assay: Antifeedant activity against larvae of Tribolium castaneum (red flour beetle) assessed as mortality at 100 ppm after 3 days relative to control; format: functional; conditions: 72 h
# Tribolium castaneum [36] = assay: Antifeedant activity against adult of Tribolium castaneum (red flour beetle) assessed as feeding deterrence index at 10 ppm after 3 days relative to control; format: functional
# Sitophilus zeamais [37] = assay: Antifeedant activity against adult of Sitophilus zeamais assessed as mortality at 100 ppm after 3 days relative to control; format: functional; conditions: 72 h
# Tribolium castaneum [38] = assay: Antifeedant activity against adult of Tribolium castaneum (red flour beetle) assessed as relative consumption rate at 30 ppm after 3 days relative to control; format: functional
# Tribolium castaneum [39] = assay: Antifeedant activity against adult of Tribolium castaneum (red flour beetle) assessed as mortality at 30 ppm after 3 days relative to control; format: functional; conditions: 72 h
# Tribolium castaneum [40] = assay: Antifeedant activity against larvae of Tribolium castaneum (red flour beetle) assessed as feeding deterrence index at 30 ppm after 3 days relative to control; format: functional
# Tribolium castaneum [41] = assay: Antifeedant activity against adult of Tribolium castaneum (red flour beetle) assessed as mortality at 300 ppm after 3 days relative to control; format: functional; conditions: 72 h
# Sitophilus zeamais [42] = assay: Antifeedant activity against adult of Sitophilus zeamais assessed as feeding deterrence index at 3 ppm after 3 days relative to control; format: functional
# Tribolium castaneum [43] = assay: Antifeedant activity against larvae of Tribolium castaneum (red flour beetle) assessed as relative consumption rate at 3 ppm after 3 days relative to control; format: functional
# Sitophilus zeamais [44] = assay: Antifeedant activity against adult of Sitophilus zeamais assessed as feeding deterrence index at 30 ppm after 3 days relative to control; format: functional
# Tribolium castaneum [45] = assay: Antifeedant activity against larvae of Tribolium castaneum (red flour beetle) assessed as efficiency of conversion of ingested food at 10 ppm after 3 days relative to control; format: functional, Instar larval stage
# Sitophilus zeamais [46] = assay: Antifeedant activity against adult of Sitophilus zeamais assessed as relative growth rate at 300 ppm after 3 days relative to control; format: functional
# Sitophilus zeamais [47] = assay: Antifeedant activity against adult of Sitophilus zeamais assessed as mortality at 3 ppm after 3 days relative to control; format: functional; conditions: 72 h
# Tribolium castaneum [48] = assay: Antifeedant activity against adult of Tribolium castaneum (red flour beetle) assessed as efficiency of conversion of ingested food at 100 ppm after 3 days relative to control; format: functional
structure (smiles),measurement,setting,value
COc1c2ccccc2nc2occc12 [DICTAMNINE],Activity,Sitophilus zeamais [1],52.65 µg/mg/day
same,Activity,Tribolium castaneum [2],31.75 µg/mg/day
same,Activity,Tribolium castaneum [3],84.83 µg/mg/day
same,FDI,Tribolium castaneum [4],59.58%
same,mortality at 3 ppm,Tribolium castaneum [5],0%
same,Activity,Tribolium castaneum [6],13.81%
same,Activity,Tribolium castaneum [7],52.88 µg/mg/day
same,Activity,Sitophilus zeamais [8],86.75 µg/mg/day
same,mortality at 3 ppm,Tribolium castaneum [9],0%
same,Activity,Sitophilus zeamais [10],15.71 µg/mg/day
same,Activity,Tribolium castaneum [11],168.23 µg/mg/day
same,Activity,Sitophilus zeamais [12],126.78 µg/mg/day
same,mortality at 10 ppm,Tribolium castaneum [13],0%
same,Activity,Tribolium castaneum [14],6.45 µg/mg/day
same,Activity,Tribolium castaneum [15],29.56 µg/mg/day
same,mortality at 100 ppm,Tribolium castaneum [16],0%
same,Activity,Tribolium castaneum [17],47.56 µg/mg/day
same,Activity,Tribolium castaneum [18],59.8 µg/mg/day
same,Activity,Tribolium castaneum [19],27.3 µg/mg/day
same,Activity,Tribolium castaneum [20],7.08 µg/mg/day
same,Activity,Tribolium castaneum [21],129.71 µg/mg/day
same,Activity,Tribolium castaneum [22],13.49 µg/mg/day
same,Activity,Sitophilus zeamais [23],14.32 µg/mg/day
same,Activity,Tribolium castaneum [24],21.25%
same,mortality at 30 ppm,Sitophilus zeamais [25],0%
same,Activity,Tribolium castaneum [26],19.91%
same,Activity,Sitophilus zeamais [27],9.1%
same,Activity,Sitophilus zeamais [28],6.81%
same,Activity,Sitophilus zeamais [29],9.73%
same,Activity,Sitophilus zeamais [30],35.13 µg/mg/day
same,mortality at 300 ppm,Sitophilus zeamais [31],0%
same,mortality at 300 ppm,Tribolium castaneum [32],4%
same,Activity,Sitophilus zeamais [33],12.08 µg/mg/day
same,mortality at 10 ppm,Sitophilus zeamais [34],0%
same,mortality at 100 ppm,Tribolium castaneum [35],0%
same,FDI,Tribolium castaneum [36],17.06%
same,mortality at 100 ppm,Sitophilus zeamais [37],0%
same,Activity,Tribolium castaneum [38],101.27 µg/mg/day
same,mortality at 30 ppm,Tribolium castaneum [39],0%
same,FDI,Tribolium castaneum [40],38.52%
same,mortality at 300 ppm,Tribolium castaneum [41],2%
same,FDI,Sitophilus zeamais [42],9.69%
same,Activity,Tribolium castaneum [43],254.2 µg/mg/day
same,FDI,Sitophilus zeamais [44],30.99%
same,Activity,Tribolium castaneum [45],18.07%
same,Activity,Sitophilus zeamais [46],3.21 µg/mg/day
same,mortality at 3 ppm,Sitophilus zeamais [47],0%
same,Activity,Tribolium castaneum [48],17.88%
CC1=C2C(=O)O[C@@H](c3ccoc3)[C@]2(C)CCC1 [FRAXINELLONE],Activity,Sitophilus zeamais [1],79.29 µg/mg/day
same,Activity,Tribolium castaneum [2],23.22 µg/mg/day
same,Activity,Tribolium castaneum [3],30.12 µg/mg/day
same,FDI,Tribolium castaneum [4],69.28%
same,mortality at 3 ppm,Tribolium castaneum [5],0%
same,Activity,Tribolium castaneum [6],10.07%
same,Activity,Tribolium castaneum [7],52.62 µg/mg/day
same,Activity,Sitophilus zeamais [8],113.45 µg/mg/day
same,mortality at 3 ppm,Tribolium castaneum [9],0%
same,Activity,Sitophilus zeamais [10],15.22 µg/mg/day
same,Activity,Tribolium castaneum [11],163.61 µg/mg/day
same,Activity,Sitophilus zeamais [12],133.85 µg/mg/day
same,mortality at 10 ppm,Tribolium castaneum [13],0%
same,Activity,Tribolium castaneum [14],1.48 µg/mg/day
same,Activity,Tribolium castaneum [15],30.45 µg/mg/day
same,mortality at 100 ppm,Tribolium castaneum [16],0%
same,Activity,Tribolium castaneum [17],41.3 µg/mg/day
same,Activity,Tribolium castaneum [18],60.43 µg/mg/day
same,Activity,Tribolium castaneum [19],23.64 µg/mg/day
same,Activity,Tribolium castaneum [20],-8.44 µg/mg/day
same,Activity,Tribolium castaneum [21],120.94 µg/mg/day
same,Activity,Tribolium castaneum [22],9.41 µg/mg/day
same,Activity,Sitophilus zeamais [23],13.29 µg/mg/day
same,Activity,Tribolium castaneum [24],21.68%
same,mortality at 30 ppm,Sitophilus zeamais [25],2%
same,Activity,Tribolium castaneum [26],21.98%
same,Activity,Sitophilus zeamais [27],11.41%
same,Activity,Sitophilus zeamais [28],6.56%
same,Activity,Sitophilus zeamais [29],9.66%
same,Activity,Sitophilus zeamais [30],35.29 µg/mg/day
same,mortality at 300 ppm,Sitophilus zeamais [31],4%
same,mortality at 300 ppm,Tribolium castaneum [32],12%
same,Activity,Sitophilus zeamais [33],10.06 µg/mg/day
same,mortality at 10 ppm,Sitophilus zeamais [34],0%
same,mortality at 100 ppm,Tribolium castaneum [35],0%
same,FDI,Tribolium castaneum [36],18.64%
same,mortality at 100 ppm,Sitophilus zeamais [37],0%
same,Activity,Tribolium castaneum [38],83.91 µg/mg/day
same,mortality at 30 ppm,Tribolium castaneum [39],0%
same,FDI,Tribolium castaneum [40],50.33%
same,mortality at 300 ppm,Tribolium castaneum [41],4%
same,FDI,Sitophilus zeamais [42],2.92%
same,Activity,Tribolium castaneum [43],233.06 µg/mg/day
same,FDI,Sitophilus zeamais [44],30.76%
same,Activity,Tribolium castaneum [45],20.9%
same,Activity,Sitophilus zeamais [46],4.26 µg/mg/day
same,mortality at 3 ppm,Sitophilus zeamais [47],0%
same,Activity,Tribolium castaneum [48],17.57%
